From patent US7399760B2, “Pyrimidinedione derivatives” (Bexel Pharmaceuticals Inc., priority 2002, dated 2008)

What was measured:
IL-6 = IL-6 production from LPS-stimulated human monocytes (ELISA); type: cell-based; conditions: Monocyte, Conc. 10 μM
Experimental: (§1) This assay determines the effect of test compounds on the production of IL-6 from human monocytes. Compounds are tested for their ability to downregulate the production of IL-6 in activated monocytes. Test compounds were incubated for three, six and twenty four hours with human monocytes. Lipopolysaccharide was used to stimulate the monocytes. The level of Interleukin-6 is quantitated using Enzyme-Linked Immunosorbent assay performed in a 96 well format.

TNF-α = TNF-α production from LPS-stimulated human monocytes (ELISA); type: cell-based; conditions: Monocyte, Conc. 10 μM
Experimental: as §1, with “TNF-α” for “IL-6”, “were” for “are”, “TNF-α was” for “Interleukin-6 is”

COX-2 = target: T1, COX-2 (Homo sapiens, UniProt P35354); experiment: Human whole blood assay, COX-2 inhibition (PGE2 ELISA after LPS); type: cell-based; conditions: Conc. 1 μM, aspirin-treated, LPS 10 μg/ml, 24 h at 37° C., PGE2 in plasma
T1 construct: incubation of human blood with lipopolysaccharide (LPS), which induces COX-2 production in the blood; endogenous in cells; host or cells: fresh human whole blood from male volunteers, treated with aspirin and then LPS
T1 sequence (P35354 18-604): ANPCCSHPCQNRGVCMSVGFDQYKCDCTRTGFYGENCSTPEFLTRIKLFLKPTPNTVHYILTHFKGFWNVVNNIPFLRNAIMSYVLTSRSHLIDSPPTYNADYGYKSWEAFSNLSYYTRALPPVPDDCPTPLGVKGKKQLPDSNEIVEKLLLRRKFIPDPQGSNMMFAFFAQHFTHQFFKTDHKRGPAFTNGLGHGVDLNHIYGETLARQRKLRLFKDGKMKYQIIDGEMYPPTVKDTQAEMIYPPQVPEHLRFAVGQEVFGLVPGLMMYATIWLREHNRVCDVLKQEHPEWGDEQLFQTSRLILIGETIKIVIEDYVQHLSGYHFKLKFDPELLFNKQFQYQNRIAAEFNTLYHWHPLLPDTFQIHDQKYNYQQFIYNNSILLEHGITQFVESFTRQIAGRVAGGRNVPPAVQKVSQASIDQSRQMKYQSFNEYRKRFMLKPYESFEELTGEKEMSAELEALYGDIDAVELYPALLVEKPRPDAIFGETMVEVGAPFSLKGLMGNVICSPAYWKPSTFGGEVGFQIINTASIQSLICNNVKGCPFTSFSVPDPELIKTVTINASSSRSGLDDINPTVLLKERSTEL
Experimental: The COX-2 inhibition activity of the compounds illustrated in the examples was determined by the following method.
Human whole blood provides a protein and cell rich milieu appropriate for the study of biochemical efficacy of anti-inflammatory compounds such as selective COX-2 inhibitors. […] This is correlating with the observation that COX-2 inhibitors have no effect on prostaglandin E2 (PGE2) production in normal blood. These inhibitors are active only after incubation of human blood with lipopolysaccharide (LPS), which induces COX-2 production in the blood.
Fresh blood was collected in tubes containing potassium EDTA by vein puncture from male volunteers. The subjects should have no apparent inflammatory conditions and not taken NSAIDs for atleast 7 days prior to blood collection. Blood was treated with aspirin in vitro (10 μg/ml, at time zero) to inactivate COX-1, and then with LPS (10 μg/ml) along with test agents or vehicle. The blood was incubated for 24 h at 37° C., after which the tubes were centrifuged, the plasma was separated and stored at −80° C. (J Pharmacol Exp Ther 271, 1705, 1994; Proc Natl Acad Sci USA 96, 7563, 1999). The plasma was assayed for PGE2 using Cayman ELISA kit as per the procedure outlined by the manufacturer (Cayman Chemicals, Ann Arbor, USA). […]

SMILES | melting point | inhibition at 1 µM (COX-2) [%] | inhibition at 10 µM (IL-6) [%] | inhibition at 10 µM (TNF-α) [%]
CSc1ccc(-n2c(-c3ccccc3)cc(=O)[nH]c2=O)cc1 [Example 1, 1-(4-methylsulfanyl-phenyl)-6-phenyl-1H-pyrimidin-2,4-(1H)-dione] | 239 to 242 °C (dec.) | – | 80.6 | 48.5
CSc1ccc(-n2c(-c3ccc(Cl)cc3)cc(=O)[nH]c2=O)cc1 [Example 3, 1-(4-methylsulfanyl-phenyl)-6-(4-chlorophenyl)-1H-pyrimidin-2,4-(1H)-dione] | 249 to 251 °C | – | – | –
CS(=O)(=O)c1ccc(-n2c(-c3ccccc3)cc(=O)[nH]c2=O)cc1 [Example 6, 1-(4-methylsulfonyl-phenyl)-6-phenyl-pyrimidin-1H-pyrimidin-2,4-(1H)-dione] | 283 to 287 °C (dec.) | – | 75.3 | 43.2
Cc1ccc(-c2cc(=O)[nH]c(=O)n2-c2ccc(S(C)(=O)=O)cc2)cc1 [Example 7] | 285 to 288 °C | 40.8 | 81.3 | 57.6
CS(=O)(=O)c1ccc(-n2c(-c3ccc(Cl)cc3)cc(=O)[nH]c2=O)cc1 [Example 8, 6-(4-chlorophenyl)-1-(4-methylsulfonyl-phenyl)-1H-pyrimidin-2,4-(1H)-dione] | 294 to 298 °C | – | – | –

Further lines, with some results ahead:

melting point | inhibition at 1 µM (COX-2) [%] | SMILES | inhibition at 10 µM (IL-6) [%] | inhibition at 10 µM (TNF-α) [%]
235 to 238 °C | – | CSc1ccc(-n2c(-c3ccc(C)cc3)cc(=O)[nH]c2=O)cc1 [Example 2, 1-(4-methylsulfanyl-phenyl)-6-(4-methylphenyl)-1H-pyrimidin-2,4-(1H)-dione] | 78.6 | 69.3
266 to 268 °C | – | CSc1ccc(-c2cc(=O)[nH]c(=O)n2-c2ccc(C)cc2)cc1 [Example 4, 1-(4-methylphenyl)-6-(4-methylsulfanyl-phenyl)-1H-pyrimidin-2,4-(1H)-dione] | – | –
282 to 285 °C | – | CSc1ccc(-c2cc(=O)[nH]c(=O)n2-c2ccc(Br)cc2)cc1 [Example 5, 1-(4-bromophenyl)-6-(4-methylsulfanyl-phenyl)-1H-pyrimidin-2,4-(1H)-dione] | – | –
